# Legend:
# [1] = tested on: CD4+, CD8+, NKR-P1A, and ED2 positive cells; test: Immunohistological examination of cell infiltration into heart allograft tissue; assay type: in vivo, rat; conditions: CsA 10 mg/kg/day, tacrolimus 3.2 mg/kg/day orally from day 5
# Text: The presence of CD4+, CD8+, NKR-P1A, and ED2 positive cells was examined on day 5, 7 and 10 after transplantation by immunohistological examination of graft tissue immunostained with specific antibodies to various immune cell populations. For immunohistology, 4 μm frozen sections of heart tissue were cut, fixed with acetone and exposed to monoclonal antibodies (Pharmingen, San Diego, Calif.) against markers for CD4+ (helper T cells), CD8^+ (cytotoxic T cells), NKR-P1A (natural killer cells), and ED2 (macrophage cells) positive cells. Then the sections were incubated with peroxidase-conjugated anti-mouse IgG antibodies. The bound peroxidase was detected using 3-amino-9-ethylcarbazole. The results were scored quantitatively. In each tissue section, three random representative fields were counted by visual microscope (×40) to determine the average cell number per tissue.
# [2] = tested on: T-cell-dependent antibody production, graft vs. host reactivity, delayed-type sensitivity reactions; conditions: suppressing T-cell-dependent antibody production; cited from earlier work
# [3] = tested on: liver transplantation; conditions: clinical organ transplantation, estimated; cited from earlier work
# [4] = tested on: IL10 protein; test: ELISA assay of IL10 protein in serum peripheral lymphocytes of heart allograft recipients; assay type: in vivo, rat; conditions: day 7 post-transplantation, compared with the allograft control; optimal doses from day 5
# Experimental: (§1) The transplantation method described in Example 5 was used. […] The levels of IL2, IL4 and IL10 proteins in serum peripheral lymphocytes were measured at day 7 post-transplantation by ELISA assay.
# [5] = tested on: allograft survival; conditions: optimal doses administered several days after transplantation, after allograft rejection has begun; cited from earlier work
# [6] = tested on: heart allografts, ongoing graft rejection; test: Rescue of ongoing heart allograft rejection (drug from day 5 for 10 days); assay type: in vivo, rat; conditions: 3.2 mg/kg/day on days 5-14 post-transplantation
# Text: (§2) Inbred male Lewis rats (LEW) (RT1^1), weighing 200-250 g, were used as heart transplantation recipients. Inbred male LEW and inbred male Brown Norway (BN) (RT1^a), weighing 150-200 g, were used as isograft and allograft donor rats, respectively. […] Rejection of heart grafts was defined as the complete cessation of impulse and was confirmed visually after laparatomy. […] Control isograft and allograft recipients (5 rats each) received no immunosuppressant drugs after transplantation.
# Therefore, drug administration was halted from day 0-day 4 after heart transplantation in order to initiate the transplantation process.
# [7] = tested on: heart allografts (BN to LEW); test: Rat heart transplantation, primary therapy to prevent acute allograft rejection (drug day 0 to day 10); assay type: in vivo; conditions: for median survival time (MST) of heart allografts: day 0 to day 10 after transplantation, allograft control 6 days
# Text: as §2
# [8] = tested on: renal allografts (BN to LEW); test: Rescue of ongoing renal allograft rejection (drug from day 2 or day 4 for 13 days); assay type: in vivo, rat; conditions: untreated allograft controls rejected at day 8
# Experimental: Male LEW rats weighing 250-350 g and male BN rats weighing 150-250 g were kept under specific pathogen-free conditions in the animal facility at Fujisawa Pharmaceutical Co., Ltd., Osaka, Japan. […] The donor ureter was directly implanted into the recipient bladder over a fine polyethylene internal stent. All recipients were bilaterally nephrectomized at the time of transplantation. The graft ischemic time was approximately 30 minutes. Survival of the kidney transplant was measured as time of rat survival. Graft rejection was confirmed by histological examination of kidney tissue from recipients with the observation of interstitial hemorrhage, tubular necrosis, venous endotheliatitis and diffuse lymphoplasmacytic infiltration indicating graft rejection. […] Control isograft and allograft recipients received either distilled water, olive oil, or placebo after transplantation.
# [9] = tested on: IL2 and IL4 protein; test: ELISA assay of IL2 and IL4 proteins in serum peripheral lymphocytes of heart allograft recipients; assay type: in vivo, rat; conditions: day 7 post-transplantation; optimal doses from day 5
# Experimental: as §1
# [10] = tested on: IL10 mRNA; test: RT-PCR for IL10 mRNA in heart graft tissues; assay type: in vivo, rat; conditions: days 7 and 10; CsA 10 mg/kg/day, tacrolimus 3.2 mg/kg/day from day 5
# Experimental: At day 5, 7 and 10 after transplantation, total RNA was extracted from heart graft tissues and tested by reverse transcriptase-polymerase chain reaction (RT-PCR) for cytokine mRNAs. Total RNA was extracted from transplanted heart tissue by TRIZOL (GIBCO BRL, Gaithersburg, Md.). RT-PCR was performed by reverse transcribing total RNA into cDNA using random hexamers (GIBCO BRL, Gaithersburg, Md.). The reverse-transcribed material was added to the PCR mixture with sense and anti-sense primers of IFNγ, IL2, IL4, IL10, IL1β, IL6, TNFα, TGFβ, Granzyme, Perforin or G3PDH and Taq DNA polymerase (Boehringer Mann heim GmbH, Mannheim, Germany). Amplification was performed with optimized cycles for each cytokine or G3PDH by ThermalCycler (Perkin-Elmer, Branchburg, N.J.). PCR product was applied to 2.3% agarose gel, resolved by electrophoresis, and visualized by ethidium bromide staining. The intensity of the gene-specific bands was obtained by the Gel Doc 1000 documentation system (BIO-RAD Laboratories, Hercules, Calif.). G3PDH mRNA was amplified as an internal control for RT-PCR.
smiles,measurement,setting,value
"C=CC[C@@H]1/C=C(\C)C[C@H](C)C[C@H](OC)[C@H]2O[C@@](O)(C(=O)C(=O)N3CCCC[C@H]3C(=O)O[C@H](/C(C)=C/[C@@H]3CC[C@@H](O)[C@H](OC)C3)[C@H](C)[C@@H](O)CC1=O)[C@H](C)C[C@@H]2OC [tacrolimus, Tacrolimus]",suppression of all of the cell infiltration into the local graft tissues,[1]; day 7,no significant suppression
same,blocking CD8+ and NKR-P1A cell infiltration,[1]; day 10,significantly blocked
same,blocking the CD4+ and ED2 cell filtration,[1]; day 10,partially blocking
same,potency relative to CsA in vivo,[2],10 times
same,potency relative to CsA in liver transplantation,[3],three to ten orders of magnitude more potent
same,suppression of IL10 protein expression,[4],73%
same,effect on allograft survival,[5],significantly increase allograft survival
same,extension of the survival of the graft,[6]; versus allograft control,about 13 days
same,MST of heart allografts,[6]; allograft control 6 days,19 days
same,median survival time (MST) of heart allografts,[7]; 1.0 mg/kg/day orally,12 days
same,median survival time (MST) of heart allografts,[7]; 3.2 mg/kg/day orally,19 days
same,median survival time (MST) of heart allografts,[7]; 10 mg/kg/day orally,21 days
same,optimal dose,"[7]; primary therapy, oral, day 0 to day 10, based on MST",3.2 mg/kg/day
same,recipient rats that survived more than 50 days,[8]; 3.2 mg/kg/day from day 2-14 after grafting,all of 5
same,recipient rats that survived more than 50 days,[8]; 3.2 mg/kg/day from day 4-16 after grafting,3 of 5
same,suppression of the expression of IL2 and IL4 protein,[9],equally
same,suppression of IL10 mRNA expression,[10],more than CsA

# From patent US20050025769A1, “Method of suppressing ongoing acute allograft rejection” (Fujisawa Pharmaceutical Company, Ltd., priority 1999, published 2005)
